Eight compounds from PubChem BioAssay (NCI) can be followed below.

Some test systems named below: UACC-257 melanoma; SNB-75 CNS; BT-549 breast; M14 melanoma; HS 578T breast; HT29 colon; OVCAR-5 ovarian; KM12 colon; A549 NSCLC; SW-620 colon.
What all share (experiment): NCI anticancer screen, dose series, 48 h

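Grown in 96-well plates, cells were treated for 48 hours with each compound at five concentrations. Insufficient inhibition: endpoint recorded as highest concentration tested. At the GI50, growth is halved. TGI is the concentration that stops growth completely.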 Where only a bound is given, the exact number is not on record here.

Turning to `COc1cc(OC)c(C(=O)/C=C/c2cccc(OC(C)=O)c2)cc1CC=C(C)C`, the GI50 in the experiment with UACC-257 melanoma is 10.4 µM; in the experiment on SNB-75 CNS, 4.68 µM; in the experiment on BT-549 breast, 6.28 µM; with M14 melanoma, 7.3 µM; in the experiment with HS 578T breast, over 50 µM; with HT29 colon it was 5.92 µM. The GI50 was 11.9 µM with OVCAR-5 ovarian, 7.16 µM in the experiment with KM12 colon, 15.2 µM in the experiment with A549 NSCLC and 7.02 µM in the experiment with SW-620 colon. The TGI with UACC-257 melanoma is 36.8 µM; in the experiment on SNB-75 CNS it was 11.8 µM; with BT-549 breast, 36.6 µM; with M14 melanoma it was 18.2 µM; in the experiment on HS 578T breast, over 50 µM; in the experiment on HT29 colon, 17.3 µM. The TGI is 22.5 µM in the experiment with OVCAR-5 ovarian, 14.8 µM in the experiment on KM12 colon, over 50 µM in the experiment on A549 NSCLC and 18.5 µM with SW-620 colon.

For `COc1ccc2c(c1)/C(=N/OC(C)=O)c1c-2c(=O)[nH]c2ccccc12`, the GI50 is 17.3 µM in the experiment with UACC-257 melanoma; 11.1 µM in the experiment on SNB-75 CNS; 7.99 µM in the experiment on BT-549 breast; 13.2 µM with M14 melanoma; 8.88 µM with HS 578T breast; 15.6 µM in the experiment with HT29 colon. Further, the GI50 in the experiment with OVCAR-5 ovarian was 11.5 µM; with KM12 colon it was 3.84 µM; in the experiment on A549 NSCLC, 15.8 µM; in the experiment on SW-620 colon, 14.2 µM. Besides, the TGI in the experiment with UACC-257 melanoma was found to be 34.2 µM; with SNB-75 CNS, 25.9 µM; with BT-549 breast it was 24.1 µM; in the experiment on M14 melanoma it was 27.4 µM; in the experiment on HS 578T breast, 31.4 µM; in the experiment on HT29 colon it was 32.8 µM. Moreover, the TGI with OVCAR-5 ovarian was 24.5 µM; in the experiment with KM12 colon it was 19.6 µM; in the experiment with A549 NSCLC it was 31.3 µM; with SW-620 colon it was 30.3 µM.

On to `O=C(COc1cccc(/C=C2\CSc3ccccc3C2=O)c1)c1ccc(Cl)cc1`, for which the GI50 in the experiment with UACC-257 melanoma is 2.68 µM; in the experiment on SNB-75 CNS, 5.04 µM; in the experiment on BT-549 breast, 1.69 µM; in the experiment on M14 melanoma, 1.63 µM; in the experiment with HS 578T breast, 2.74 µM; in the experiment with HT29 colon, 1.43 µM. The GI50 in the experiment with OVCAR-5 ovarian was 1.85 µM; with KM12 colon, 1.29 µM; in the experiment with A549 NSCLC it was 11.8 µM; in the experiment with SW-620 colon, 0.231 µM. For the same compound, the TGI with UACC-257 melanoma stood at 6.85 µM; with SNB-75 CNS, 22.4 µM; with BT-549 breast, 3.39 µM; in the experiment on M14 melanoma, 3.09 µM; in the experiment with HS 578T breast, 17.2 µM; in the experiment with HT29 colon, 2.9 µM. Moreover, the TGI in the experiment on OVCAR-5 ovarian was determined as 4.08 µM; in the experiment with KM12 colon it was 2.75 µM; in the experiment on A549 NSCLC, 65.6 µM; with SW-620 colon, 0.606 µM.

For the compound `O=C(Nc1ccccc1)Nc1cccc(Oc2nnc(Cl)c3ccccc23)c1`, the GI50 in the experiment on UACC-257 melanoma was 3.96 µM; in the experiment with SNB-75 CNS it was 1.08 µM; with BT-549 breast, 3.06 µM; in the experiment on M14 melanoma, 6.15 µM; in the experiment on HS 578T breast, 2.12 µM; in the experiment with HT29 colon it was 5.26 µM. In addition, the GI50 was 5.61 µM in the experiment on OVCAR-5 ovarian, 5.51 µM in the experiment with KM12 colon, 3.47 µM in the experiment on A549 NSCLC and 8.41 µM with SW-620 colon. For the same compound, the TGI with UACC-257 melanoma was over 25 µM; with SNB-75 CNS it was 5.9 µM; with BT-549 breast, 10.8 µM; in the experiment on M14 melanoma it was over 25 µM; in the experiment on HS 578T breast, 10.4 µM; with HT29 colon, over 25 µM. The TGI in the experiment on OVCAR-5 ovarian was 15.3 µM; in the experiment on KM12 colon it was over 25 µM; with A549 NSCLC it was 18.4 µM; with SW-620 colon, over 25 µM.

In the case of `CN1CCN(c2ccc(C(=O)Nc3cc(-c4cccc(NS(=O)(=O)c5ccccc5)c4)[nH]n3)cc2)CC1`, the GI50 in the experiment on UACC-257 melanoma is 11.2 µM; in the experiment on SNB-75 CNS, 1.61 µM; in the experiment with BT-549 breast, 9.38 µM; in the experiment with M14 melanoma, 6.13 µM; with HS 578T breast, 1.7 µM; in the experiment with HT29 colon, 3.51 µM. Further, the GI50 is 13.8 µM in the experiment with OVCAR-5 ovarian, 0.0293 µM in the experiment with KM12 colon, 7.85 µM in the experiment on A549 NSCLC and 5.86 µM in the experiment with SW-620 colon. The TGI with UACC-257 melanoma stood at 27 µM; with SNB-75 CNS it was 11.1 µM; with BT-549 breast, 26.3 µM; in the experiment on M14 melanoma, 20.3 µM; in the experiment with HS 578T breast it was 10.4 µM; in the experiment with HT29 colon, 14.6 µM. The TGI in the experiment on OVCAR-5 ovarian was determined as 46.6 µM; in the experiment on KM12 colon, 13.8 µM; with A549 NSCLC, 25.4 µM; with SW-620 colon, 27.2 µM.

Regarding `CCNCCCn1c2c(c3ccc([N+](=O)[O-])cc3c1=O)C(=O)c1cc(OC)cnc1-2`, the GI50 in the experiment on UACC-257 melanoma is 0.157 µM; with SNB-75 CNS, 0.126 µM; in the experiment on BT-549 breast it was 0.172 µM; in the experiment with M14 melanoma, 0.0408 µM; in the experiment on HS 578T breast, 1.05 µM; in the experiment on HT29 colon, 0.0579 µM. Also, the GI50 in the experiment with OVCAR-5 ovarian is 0.176 µM; with KM12 colon it was 0.197 µM; with A549 NSCLC, 0.0776 µM; with SW-620 colon, 0.0653 µM. For the same compound, the TGI in the experiment on UACC-257 melanoma is 0.92 µM; in the experiment on SNB-75 CNS, 1.54 µM; with BT-549 breast, 1.2 µM; with M14 melanoma it was 0.437 µM; in the experiment on HS 578T breast, 4.33 µM; in the experiment on HT29 colon, 1.25 µM. In addition, the TGI in the experiment with OVCAR-5 ovarian was determined as 0.675 µM; in the experiment on KM12 colon it was 0.505 µM; in the experiment on A549 NSCLC it was 0.296 µM; in the experiment on SW-620 colon, 3.57 µM.

Consider `COc1ccc(/C=C/NC=O)cc1`, for which the TGI with UACC-257 melanoma, in the experiment with SNB-75 CNS, in the experiment on BT-549 breast, with M14 melanoma, in the experiment with HS 578T breast and with HT29 colon was over 100 µM throughout. The TGI with OVCAR-5 ovarian, in the experiment with KM12 colon, in the experiment on A549 NSCLC and in the experiment on SW-620 colon was over 100 µM in each case.

Take `C=C1C(=O)OC2CC(C)C3C=CC(=O)C3CC12` (stereo not given): the TGI with UACC-257 melanoma was determined as 4.9 µM; with SNB-75 CNS it was 18.5 µM; in the experiment on BT-549 breast, 9.94 µM; in the experiment with M14 melanoma, 3.46 µM; with HS 578T breast, 6.53 µM; with HT29 colon it was 4.83 µM. In addition, the TGI in the experiment on OVCAR-5 ovarian was determined as 10.4 µM; in the experiment with KM12 colon it was 18.9 µM; in the experiment on A549 NSCLC, 24 µM; in the experiment with SW-620 colon, 3.69 µM.
